Where a SMILES comes first, the peptide text is derived from it. Bridges are numbered along the chain shown (N, C = ends). [ ]: non-standard residue; d: D form. The star is where a group is joined. ξ: configuration not given here. X7 = NC[C@H](NC(=O)CNCCNCCN*)C(=O)NCCCCCCCCCCC(=O)O; Phe(4-COOH) = N[C@@H](Cc1ccc(C(=O)O)cc1)C(=O)O; Bip = N[C@@H](Cc1ccc(-c2ccccc2)cc1)C(=O)O; Phe(3-Me) = Cc1cccc(C[C@H](N)C(=O)O)c1; Val(3-OH) = CC(C)(O)[C@H](N)C(=O)O; 4Pal = N[C@@H](Cc1ccncc1)C(=O)O; Cha = N[C@@H](CC1CCCCC1)C(=O)O; Cit = NC(=O)NCCC[C@H](N)C(=O)O; Ile(3ξ) = CCC(C)[C@H](N)C(=O)O; Thr(3ξ) = CC(O)[C@H](N)C(=O)O; dCba = N[C@H](CC1CCC1)C(=O)O; β3hS = N[C@@H](CO)CC(=O)O; Carboxymethyl = O=C(O)C*; NMeA = CN[C@@H](C)C(=O)O; Orn = NCCC[C@H](N)C(=O)O; Aun = NCCCCCCCCCCC(=O)O; Dab = NCC[C@H](N)C(=O)O; Dap = NC[C@H](N)C(=O)O; AEEA = NCCOCCOCC(=O)O; Sar = CNCC(=O)O

Usually IC50 stands for the point on the concentration scale where inhibition reaches its midpoint.

T1 sequence (Q15116 25-288): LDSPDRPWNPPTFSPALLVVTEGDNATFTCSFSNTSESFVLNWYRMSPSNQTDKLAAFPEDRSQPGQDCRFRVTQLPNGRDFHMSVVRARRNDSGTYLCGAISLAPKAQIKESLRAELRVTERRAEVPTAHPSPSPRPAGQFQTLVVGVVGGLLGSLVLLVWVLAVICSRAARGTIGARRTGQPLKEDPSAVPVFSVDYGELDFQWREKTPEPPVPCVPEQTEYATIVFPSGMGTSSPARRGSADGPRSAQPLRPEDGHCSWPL

The experiment has as its target T1, PD-1/PD-L1 interaction (PE-labeled human PD-L1-Ig binding to Jurkat cell line over-expressing human PD-1) (Homo sapiens, UniProt Q15116).
T1 construct: expressed in transfected cells; host or cells: Jurkat
The experiment is described as follows: Jurkat-PD-1 Cell Binding High-Content Screening Assay (CBA). The settings on record: Jurkat-hPD-1 cells, PE-labeled PD-L1-Ig 20 nM final; read-out: Jurkat HPD1 PDL1 IC50. The method in brief:
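Compound is added first to the PD-1-expressing Jurkat cells and held 2 h at 37 °C in serum-containing DMEM. The fluorescent PD-L1 fusion follows at 20 nM final for 1 h. Fixed, Hoechst-stained cells are then imaged for bound label.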
Consider `Cc1cccc(C[C@@H]2NC(=O)[C@H](CC(=O)O)NC(=O)[C@H](Cc3ccc(OCC(=O)O)cc3)NC(=O)[C@H]([C@@H](C)O)NC(=O)CSC[C@@H](C(=O)N[C@H](C)C(=O)NCCCCCCCCCCC(=O)O)NC(=O)[C@H](CCC(=O)O)NC(=O)[C@H](C(C)(C)O)NC(=O)[C@H](CC3CCCCC3)NC(=O)[C@H](CCN)NC(=O)[C@@H](CC(C)C)NC(=O)[C@H](C)N(C)C(=O)[C@H](Cc3ccc(OCC(=O)O)cc3)NC(=O)[C@H](Cc3ccc(-c4ccccc4)cc3)NC(=O)[C@H](Cc3ccc(OCC(=O)O)cc3)NC2=O)c1` [Example 1421] ({CH2CO}-TY(Carboxymethyl)D[Phe(3-Me)]Y(Carboxymethyl)[Bip]Y(Carboxymethyl)[NMeA][dL][Dab][Cha][Val(3-OH)]EC[dA][Aun]-OH; thioether N-14), for which the concentration for half-maximal inhibition (IC50) stood at 0.24 µM.

Regarding `Cc1cccc(C[C@@H]2NC(=O)[C@H](CC(=O)O)NC(=O)[C@H](Cc3ccc(OCC(=O)O)cc3)NC(=O)[C@H](CN)NC(=O)CSC[C@@H](C(=O)NCCNCCNCC(=O)N[C@@H](CN)C(=O)NCCCCCCCCCCC(=O)O)NC(=O)[C@H](CO)NC(=O)[C@H](C(C)C)NC(=O)[C@H](CC(C)C)NC(=O)[C@H](CC(N)=O)NC(=O)[C@@H](CC(C)C)NC(=O)[C@H](C)N(C)C(=O)[C@H](C(C)C)NC(=O)[C@H](Cc3ccc(-c4ccccc4)cc3)NC(=O)[C@H](CC(C)C)NC2=O)c1` [Example 1062] ({CH2CO}-[Dap]Y(Carboxymethyl)D[Phe(3-Me)]L[Bip]V[NMeA][dL]NLVSC-X7; thioether N-14), the IC50 is 0.0269 µM.

Turning to `CC(C)C[C@@H]1NC(=O)[C@H](Cc2c[nH]c3ccccc23)NC(=O)[C@H](CC(=O)O)NC(=O)[C@H](Cc2ccncc2)NC(=O)[C@H](Cc2ccc(OCC(=O)O)cc2)NC(=O)CSC[C@@H](C(=O)N[C@@H](CCN)C(=O)NCCCCCCCCCCC(=O)O)NC(=O)[C@H]([C@@H](C)O)NC(=O)[C@H](C(C)C)NC(=O)[C@H](CC2CCCCC2)NC(=O)[C@H](CCN)NC(=O)[C@@H](CC(C)C)NC(=O)[C@H](C)N(C)C(=O)[C@H](C(C)C)NC(=O)[C@H](Cc2ccc(-c3ccccc3)cc2)NC1=O` [Example 1329] ({CH2CO}-Y(Carboxymethyl)[4Pal]DWL[Bip]V[NMeA][dL][Dab][Cha]VTC[Dab][Aun]-OH; thioether N-14), the IC50 amounted to 0.0153 µM.

For `CC(C)C[C@@H]1NC(=O)[C@H](Cc2c[nH]c3ccccc23)NC(=O)[C@H](CC(=O)O)NC(=O)[C@H](Cc2ccc(C(=O)O)cc2)NC(=O)[C@H](Cc2ccc(OCC(=O)O)cc2)NC(=O)CSC[C@@H](C(=O)N[C@@H](CCCN)C(=O)NCCOCCOCC(=O)NCCCCCCCCCCC(=O)O)NC(=O)[C@H](CO)NC(=O)[C@H](C(C)C)NC(=O)[C@H](CC2CCCCC2)NC(=O)[C@H](CCN)NC(=O)[C@@H](CC2CCC2)NC(=O)[C@H](C)N(C)C(=O)[C@H](C(C)C)NC(=O)[C@H](Cc2ccc(-c3ccccc3)cc2)NC1=O` [Example 1249] ({CH2CO}-Y(Carboxymethyl)[Phe(4-COOH)]DWL[Bip]V[NMeA][dCba][Dab][Cha]VSC[Orn][AEEA][Aun]-OH; thioether N-14), the IC50 was 0.0295 µM.

With `CCC(C)[C@@H]1NC(=O)[C@H](Cc2ccc(-c3ccccc3)cc2)NC(=O)[C@H](C(C)C)NC(=O)[C@H](Cc2cccc(C)c2)NC(=O)[C@H](CC(=O)O)NC(=O)[C@H](Cc2ccc(OCC(=O)O)cc2)NC(=O)[C@H](CCCNC(=N)N)NC(=O)CSC[C@@H](C(=O)N[C@H](CC(N)=O)C(=O)NCCCCCCCCCCC(=O)O)NC(=O)[C@H](C(C)O)NC(=O)[C@H](C(C)C)NC(=O)[C@H](CC2CCCCC2)NC(=O)[C@H](CCN)NC(=O)[C@@H](CC(C)C)NC(=O)[C@H](C)N(C)C1=O` (stereo partly drawn) [Example 2298] ({CH2CO}-RY(Carboxymethyl)D[Phe(3-Me)]V[Bip][Ile(3ξ)][NMeA][dL][Dab][Cha]V[Thr(3ξ)]C[dN][Aun]-OH; thioether N-14), the IC50 was determined as 0.0247 µM.

With `Cc1cccc(C[C@@H]2NC(=O)[C@H](CC(=O)O)NC(=O)[C@H](Cc3ccc(OCC(=O)O)cc3)NC(=O)[C@H]([C@@H](C)O)NC(=O)CSC[C@@H](C(=O)N[C@@H](CCCN)C(=O)NCCOCCOCC(=O)NCCCCCCCCCCC(=O)O)NC(=O)[C@H](CO)NC(=O)[C@H](C(C)C)NC(=O)[C@H](CC3CCCCC3)NC(=O)[C@H](CCN)NC(=O)[C@@H](CC(C)C)NC(=O)[C@H](C)N(C)C(=O)[C@H](Cc3ccc(OCC(=O)O)cc3)NC(=O)[C@H](Cc3ccc(-c4ccccc4)cc3)NC(=O)[C@H](Cc3ccc(OCC(=O)O)cc3)NC2=O)c1` [Example 1372] ({CH2CO}-TY(Carboxymethyl)D[Phe(3-Me)]Y(Carboxymethyl)[Bip]Y(Carboxymethyl)[NMeA][dL][Dab][Cha]VSC[Orn][AEEA][Aun]-OH; thioether N-14), the half-inhibitory concentration (IC50) stood at 0.028 µM.

Take `Cc1cccc(C[C@@H]2NC(=O)[C@H](CC(=O)O)NC(=O)[C@H](Cc3ccc(OCC(=O)O)cc3)NC(=O)[C@H](C(C)O)NC(=O)CSC[C@@H](C(=O)N(C)CC(=O)NCCCCCCCCCCC(=O)O)NC(=O)[C@H](C(C)O)NC(=O)[C@H](C(C)C)NC(=O)[C@H](CC3CCCCC3)NC(=O)[C@H](CCN)NC(=O)[C@@H](CC(C)C)NC(=O)[C@H](C)N(C)C(=O)[C@H](C(C)C)NC(=O)[C@H](Cc3ccc(-c4ccccc4)cc3)NC(=O)[C@H](Cc3ccc(O)cc3)NC2=O)c1` (stereo partly drawn) [Example 2262] ({CH2CO}-[Thr(3ξ)]Y(Carboxymethyl)D[Phe(3-Me)]Y[Bip]V[NMeA][dL][Dab][Cha]V[Thr(3ξ)]C[Sar][Aun]-OH; thioether N-14): the IC50 stood at 0.154 µM.

For the compound `CC(C)C[C@@H]1NC(=O)[C@H](Cc2c[nH]c3ccccc23)NC(=O)[C@H](CC(=O)O)NC(=O)[C@H](Cc2ccc(C(=O)O)cc2)NC(=O)[C@H](Cc2ccc(OCC(=O)O)cc2)NC(=O)CSC[C@@H](C(=O)NCCOCCOCC(=O)NCCCCCCCCCCC(=O)O)NC(=O)[C@H](CCC(=O)O)NC(=O)[C@H](C(C)(C)O)NC(=O)[C@H](CC2CCCCC2)NC(=O)[C@H](CCN)NC(=O)[C@@H](CC(C)C)NC(=O)[C@H](C)N(C)C(=O)[C@H](C(C)C)NC(=O)[C@H](Cc2ccc(-c3ccccc3)cc2)NC1=O` [Example 1112] ({CH2CO}-Y(Carboxymethyl)[Phe(4-COOH)]DWL[Bip]V[NMeA][dL][Dab][Cha][Val(3-OH)]EC[AEEA][Aun]-OH; thioether N-14), the IC50 was 0.0471 µM.

On to `CC(C)C[C@@H]1NC(=O)[C@H](Cc2c[nH]c3ccccc23)NC(=O)[C@H](CC(=O)O)NC(=O)[C@H](Cc2ccncc2)NC(=O)[C@H](Cc2ccc(OCC(=O)O)cc2)NC(=O)CSC[C@@H](C(=O)N[C@@H](CCCNC(=N)N)C(=O)NCCCCCCCCCCC(=O)O)NC(=O)[C@H](CO)NC(=O)[C@H](C(C)C)NC(=O)[C@H](CC2CCCCC2)NC(=O)[C@H](CCN)NC(=O)[C@@H](CC(C)C)NC(=O)[C@H](C)N(C)C(=O)[C@H](C(C)C)NC(=O)[C@H](Cc2ccc(-c3ccccc3)cc2)NC1=O` [Example 1086] ({CH2CO}-Y(Carboxymethyl)[4Pal]DWL[Bip]V[NMeA][dL][Dab][Cha]VSCR[Aun]-OH; thioether N-14), for which the half-inhibitory concentration (IC50) worked out at 0.031 µM.

Take `CC(C)C[C@H]1NC(=O)[C@H](C)N(C)C(=O)[C@H](C(C)C)NC(=O)[C@H](Cc2ccc(-c3ccccc3)cc2)NC(=O)[C@H](C(C)C)NC(=O)[C@H](Cc2c[nH]c3ccccc23)NC(=O)[C@H](CC(=O)O)NC(=O)[C@H](Cc2ccncc2)NC(=O)[C@H](Cc2ccc(OCC(=O)O)cc2)NC(=O)CSC[C@@H](C(=O)N[C@@H](CCCCN)C(=O)NCCCCCCCCCCC(=O)O)NC(=O)C[C@H](CO)NC(=O)[C@H](C(C)C)NC(=O)[C@H](CC2CCCCC2)NC(=O)[C@H](CCN)NC1=O` [Example 2116] ({CH2CO}-Y(Carboxymethyl)[4Pal]DWV[Bip]V[NMeA][dL][Dab][Cha]V[β3hS]CK[Aun]-OH; thioether N-14): the half-maximal inhibitory concentration (IC50) turned out to be 0.0637 µM.

For `Cc1cccc(C[C@@H]2NC(=O)[C@H](CC(=O)O)NC(=O)[C@H](Cc3ccc(C(=O)O)cc3)NC(=O)[C@H](Cc3ccc(OCC(=O)O)cc3)NC(=O)CSC[C@@H](C(=O)NCCOCCOCC(=O)NCCCCCCCCCCC(=O)O)NC(=O)[C@H](CCCNC(N)=O)NC(=O)[C@H](C(C)C)NC(=O)[C@H](CC3CCCCC3)NC(=O)[C@H](CCN)NC(=O)[C@@H](CC(C)C)NC(=O)[C@H](C)N(C)C(=O)[C@H](C(C)C)NC(=O)[C@H](Cc3ccc(-c4ccccc4)cc3)NC(=O)[C@H](CC(C)C)NC2=O)c1` [Example 2286] ({CH2CO}-Y(Carboxymethyl)[Phe(4-COOH)]D[Phe(3-Me)]L[Bip]V[NMeA][dL][Dab][Cha]V[Cit]C[AEEA][Aun]-OH; thioether N-14), the 50% inhibitory concentration (IC50) was determined as 0.0274 µM.

With `Cc1cccc(C[C@@H]2NC(=O)[C@H](CC(=O)O)NC(=O)[C@H](Cc3ccc(OCC(=O)O)cc3)NC(=O)[C@H]([C@@H](C)O)NC(=O)CSC[C@@H](C(=O)N[C@@H](CCN)C(=O)NCCOCCOCC(=O)NCCCCCCCCCCC(=O)O)NC(=O)[C@H](CO)NC(=O)[C@H](C(C)C)NC(=O)[C@H](CC3CCCCC3)NC(=O)[C@H](CCN)NC(=O)[C@@H](CC(C)C)NC(=O)[C@H](C)N(C)C(=O)[C@H](Cc3ccc(OCC(=O)O)cc3)NC(=O)[C@H](Cc3ccc(-c4ccccc4)cc3)NC(=O)[C@H](Cc3ccc(OCC(=O)O)cc3)NC2=O)c1` [Example 1368] ({CH2CO}-TY(Carboxymethyl)D[Phe(3-Me)]Y(Carboxymethyl)[Bip]Y(Carboxymethyl)[NMeA][dL][Dab][Cha]VSC[Dab][AEEA][Aun]-OH; thioether N-14), the IC50 came out at 0.0181 µM.

Source of the values: US20260070945A1, “MACROCYCLIC IMMUNOMODULATORS” (Bristol-Myers Squibb Company, priority 2022, published 2026).
